The source of these data is PubChem BioAssay AID588715 (Vanderbilt Specialized Chemistry Center, 2011).

SMILES strings stand for the structures. Calls of active or inactive are those of the source. The rule behind the calls is not given here.

In one assay the target is Metabotropic glutamate receptor 5 (Rattus norvegicus) (UniProt P31424). Description: mGluR5 positive allosteric modulators, SAR follow-up, cell-based, HEK293A, calcium mobilization, rat (AID 588715). The following applies: HEK293A rat mGluR5, Ca2+ mobilization fluorescence, PAM.
Metabotropic glutamate receptor 5 (Rattus norvegicus), sequence (P31424 whole entry, looked up): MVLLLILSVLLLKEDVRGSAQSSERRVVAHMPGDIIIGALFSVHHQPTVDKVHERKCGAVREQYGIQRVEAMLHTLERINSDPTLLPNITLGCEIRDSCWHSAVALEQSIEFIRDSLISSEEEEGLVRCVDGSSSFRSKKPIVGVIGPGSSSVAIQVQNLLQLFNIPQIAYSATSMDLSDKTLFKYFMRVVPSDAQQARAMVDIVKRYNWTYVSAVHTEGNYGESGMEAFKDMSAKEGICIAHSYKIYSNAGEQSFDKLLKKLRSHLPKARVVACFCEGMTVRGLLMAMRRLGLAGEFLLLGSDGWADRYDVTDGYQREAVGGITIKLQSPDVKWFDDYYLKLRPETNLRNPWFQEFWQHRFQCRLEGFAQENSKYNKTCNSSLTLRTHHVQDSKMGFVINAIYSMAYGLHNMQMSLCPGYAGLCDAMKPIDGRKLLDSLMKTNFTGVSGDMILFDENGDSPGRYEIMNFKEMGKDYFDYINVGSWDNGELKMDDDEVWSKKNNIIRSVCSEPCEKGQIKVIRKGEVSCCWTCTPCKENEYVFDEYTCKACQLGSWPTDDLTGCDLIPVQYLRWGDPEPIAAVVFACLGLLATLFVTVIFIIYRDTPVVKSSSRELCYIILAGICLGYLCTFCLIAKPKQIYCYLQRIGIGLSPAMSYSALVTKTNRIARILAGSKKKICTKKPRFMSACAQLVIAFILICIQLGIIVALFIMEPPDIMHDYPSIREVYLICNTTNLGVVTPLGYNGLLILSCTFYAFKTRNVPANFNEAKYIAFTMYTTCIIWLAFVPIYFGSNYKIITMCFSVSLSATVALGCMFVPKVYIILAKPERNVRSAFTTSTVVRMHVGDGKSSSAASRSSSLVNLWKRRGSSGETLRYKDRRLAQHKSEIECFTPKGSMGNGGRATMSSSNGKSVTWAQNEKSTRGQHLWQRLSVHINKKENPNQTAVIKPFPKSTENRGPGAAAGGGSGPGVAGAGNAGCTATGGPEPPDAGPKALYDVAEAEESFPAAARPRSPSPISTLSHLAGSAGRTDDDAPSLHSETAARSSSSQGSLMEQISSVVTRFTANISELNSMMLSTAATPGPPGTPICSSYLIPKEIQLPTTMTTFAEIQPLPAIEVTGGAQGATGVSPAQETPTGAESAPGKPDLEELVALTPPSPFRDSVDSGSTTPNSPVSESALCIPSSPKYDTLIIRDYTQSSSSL
As to `O=C(c1ccc(C#Cc2ccccc2)cc1)N1CCC(O)CC1`, the EC50 was 523 nM.

Regarding `O=C(NC1CCC1)c1ccc(C#CC2CCCC2)cn1`, the concentration for a half-maximal effect (EC50) was 265 nM.

Take `CC(C)(C)NC(=O)c1ccc(C#Cc2cccc(F)c2)nc1`: the EC50 was 35 nM.

`O=C(c1ccc(C#Cc2cccc(F)c2)nc1)N1CCC(O)CC1`: the EC50 is 545 nM.

Turning to `CC(CO)(CO)NC(=O)c1ccc(C#Cc2cccc(F)c2)cn1`, the EC50 was 409 nM.

For the compound `O=C(COCc1ccncc1)N1CCN(c2ccc(F)cc2Cl)CC1`, the EC50 is 2280 nM.

Take `C[C@@H](NC(=O)c1ccc(C#Cc2cccc(F)c2)nc1)C(C)(C)O`: the EC50 was 90 nM.

On to `O=C(NC1CCC1)c1ccc(C#Cc2cccc(F)c2)nc1`, for which the EC50 is 71 nM.

Regarding `O=C(NC1CCC1)c1ccc(C#Cc2cccc(F)c2)c[n+]1[O-]`, the EC50 was 25 nM.

For `O=C(NC1CCC1)c1ccc(C#Cc2cccc(F)c2)cn1`, the EC50 was 12 nM.

With `C[C@@H](NC(=O)c1ccc(C#CC2CC2)cn1)C(C)(C)O`, the EC50 was 1580 nM.

Turning to `CC(C)(CO)NC(=O)c1ccc(C#Cc2cccc(F)c2)nc1`, the concentration giving a half-maximal response (EC50) was 213 nM.

In the case of `O=C(NC1CC(O)C1)c1ccc(C#Cc2cccc(F)c2)cn1` (stereo not drawn), the EC50 was 193 nM.

As to `O=C(NC1CCC1)c1ccc(C#CC2CC2)cn1`, the EC50 was 1280 nM.

On to `CC(C)(C)NC(=O)c1ccc(C#Cc2cccc(F)c2)cn1`, for which the EC50 was 13 nM.

`CC(C)(CO)NC(=O)c1ccc(C#Cc2cccc(F)c2)cn1`: the EC50 was 6 nM.

As for `C[C@@H](NC(=O)c1ccc(C#Cc2cccc(F)c2)cn1)C(C)(C)O`, the EC50 was 8 nM.

As to `O=C(NC1COC1)c1ccc(C#Cc2cccc(F)c2)nc1`, the EC50 is 4820 nM.

Staying with this assay, now noted: HEK293A rat mGluR5, Ca2+ mobilization fluorescence, PAM; at 29.8 µM (top of the series).
In the case of `C[C@@H](NC(=O)c1ccc(C#CC2CC2)nc1)C(C)(C)O`, the “percent of glutamate ECmax” value was “inactive”.

Regarding `CC1(NC(=O)c2ccc(C#Cc3cccc(F)c3)nc2)COC1`, the percent of glutamate ECmax was 40.

For `O=C(NC1CC(O)C1)c1ccc(C#CC2CC2)cc1` (stereo not drawn), the “percent of glutamate ECmax” value was “inactive”.

In the case of `CC1(NC(=O)c2ccc(C#CC3CC3)cc2)COC1`, the “percent of glutamate ECmax” value was “inactive”.

As to `CC(C)(CO)NC(=O)c1ccc(C#CC2CC2)nc1`, the “percent of glutamate ECmax” value was “inactive”.

On to `O=C(NC1CCC1)c1ccc(C#CC2CC2)c[n+]1[O-]`, for which the “percent of glutamate ECmax” value is “inactive”.

Consider `CC1(NC(=O)c2ccc(C#CC3CC3)cn2)COC1`, for which the “percent of glutamate ECmax” value is “inactive”.

`O=C(NC1CC(O)C1)c1ccc(C#CC2CC2)cn1` (stereo not drawn): the “percent of glutamate ECmax” value is “inactive”.

Consider `CC1(NC(=O)c2ccc(C#CC3CC3)nc2)COC1`, for which the “percent of glutamate ECmax” value is “inactive”.

For `O=C(O)c1ccc(C#Cc2cccc(F)c2)cn1`, the “percent of glutamate ECmax” value was “inactive”.

For the compound `O=C(c1ccc(C#Cc2cccc(F)c2)cn1)N1CCCCC1`, the “percent of glutamate ECmax” value was “inactive”.

Regarding `CC(C)(CO)NC(=O)c1ccc(C#CC2CC2)cc1`, the “percent of glutamate ECmax” value is “inactive”.

On to `CC(C)(CO)NC(=O)c1ccc(C#CC2CC2)cn1`, for which the “percent of glutamate ECmax” value was “inactive”.

In the case of `O=C(c1ccc(C#Cc2cccc(F)c2)cn1)N1CCC(O)CC1`, the “percent of glutamate ECmax” value was “inactive”.

As to `C[C@@H](NC(=O)c1ccc(C#CC2CC2)cc1)C(C)(C)O`, the percent of glutamate ECmax is 45.
